ChEMBL document CHEMBL1201862, “PubChem BioAssay data set” (2004)
Calls of active or inactive are those of the source.

Key:
[1] = system: P388/ADR; assay: cells; type: functional; settings: Mus musculus
[2] = system: SN12K1; assay: cells; type: functional; settings: Homo sapiens
[3] = system: P388; assay: cells; type: functional; settings: Mus musculus
[4] = system: Streptococcus sp. 'group A'; assay: growth inhibition of control SK(-) GAS strain, dose response, counter-screen for streptokinase expression inhibitor project, luminescence, kanamycin, BacTiterGlo, confirmation (AID 1900); type: functional, organism-based
[5] = target: T1, Short transient receptor potential channel 4 (Mus musculus, UniProt Q9QUQ5); assay: mouse TRPC4 channel activators, dose response, cell-based, HEK293 TRPC4/mu-opioid, Fluo-4 calcium (AID 434937); type: functional
T1 sequence (Q9QUQ5 whole entry): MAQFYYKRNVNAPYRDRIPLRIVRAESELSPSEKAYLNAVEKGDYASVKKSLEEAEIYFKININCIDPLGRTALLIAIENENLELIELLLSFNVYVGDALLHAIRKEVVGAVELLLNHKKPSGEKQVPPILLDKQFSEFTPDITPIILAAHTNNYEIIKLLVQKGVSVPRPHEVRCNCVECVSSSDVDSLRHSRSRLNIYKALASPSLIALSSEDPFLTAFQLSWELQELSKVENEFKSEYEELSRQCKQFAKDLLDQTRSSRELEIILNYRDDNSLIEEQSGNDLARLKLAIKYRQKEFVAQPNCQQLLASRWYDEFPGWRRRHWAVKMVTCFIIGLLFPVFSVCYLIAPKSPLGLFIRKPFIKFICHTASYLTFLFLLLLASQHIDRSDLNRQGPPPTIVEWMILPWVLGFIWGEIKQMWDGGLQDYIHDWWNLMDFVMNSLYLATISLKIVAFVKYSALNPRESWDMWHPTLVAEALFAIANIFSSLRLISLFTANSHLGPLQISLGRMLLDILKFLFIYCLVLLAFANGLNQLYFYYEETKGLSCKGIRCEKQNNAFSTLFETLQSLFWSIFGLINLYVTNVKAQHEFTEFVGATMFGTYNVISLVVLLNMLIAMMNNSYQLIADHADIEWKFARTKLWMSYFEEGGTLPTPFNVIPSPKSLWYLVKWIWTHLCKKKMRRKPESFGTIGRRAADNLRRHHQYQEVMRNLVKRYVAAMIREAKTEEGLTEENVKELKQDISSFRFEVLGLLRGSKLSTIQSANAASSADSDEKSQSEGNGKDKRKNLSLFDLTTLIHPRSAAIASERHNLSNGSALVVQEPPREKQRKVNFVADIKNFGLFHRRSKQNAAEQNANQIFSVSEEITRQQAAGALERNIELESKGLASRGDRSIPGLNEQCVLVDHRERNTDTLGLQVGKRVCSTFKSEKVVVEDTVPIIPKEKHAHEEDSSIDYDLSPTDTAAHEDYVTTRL

[6] = system: Streptococcus; assay: Group A Streptococcus viability loss, dose response, counter-screen for streptokinase expression inhibitor project, luminescence, BacTiterGlo (AID 1915); type: functional, organism-based;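 also: potency for reduction of bacterial viability or growth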
[7] = target: Glucose-6-phosphate 1-dehydrogenase (Homo sapiens, UniProt P11413); assay: human G6PD enzyme inhibitors, dose response, selectivity assay for P. falciparum G6PD inhibitor project, biochemical, fluorescence (AID 504792); type: functional
Chain of Glucose-6-phosphate 1-dehydrogenase (P11413 whole entry): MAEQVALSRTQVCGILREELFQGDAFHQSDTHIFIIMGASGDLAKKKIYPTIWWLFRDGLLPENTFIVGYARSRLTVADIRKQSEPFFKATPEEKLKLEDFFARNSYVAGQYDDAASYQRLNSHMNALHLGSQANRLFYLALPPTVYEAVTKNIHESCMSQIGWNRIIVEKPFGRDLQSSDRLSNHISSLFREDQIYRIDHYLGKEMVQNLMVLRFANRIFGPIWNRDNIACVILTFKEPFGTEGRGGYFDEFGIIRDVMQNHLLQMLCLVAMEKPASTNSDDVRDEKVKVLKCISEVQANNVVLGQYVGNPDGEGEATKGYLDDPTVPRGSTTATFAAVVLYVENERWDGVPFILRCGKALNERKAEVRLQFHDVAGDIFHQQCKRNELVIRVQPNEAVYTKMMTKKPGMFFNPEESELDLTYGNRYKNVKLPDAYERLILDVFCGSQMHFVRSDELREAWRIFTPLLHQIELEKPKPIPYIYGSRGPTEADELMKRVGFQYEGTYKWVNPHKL

[8] = target: T2, Heat shock factor protein 1 (Mus musculus, UniProt P38532); assay: HSF1 potentiators in luciferase reporter cells, confirmation, cell-based, NIH3T3, luminescence, dose retest (AID 435004); type: functional;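 also: stress induced by proteasome inhibitor MG132 added 30 min after compound; luciferase reporter driven by HSF1 response element in NIH3T3 cells; actives raise luminescence as potentiators of the MG132 stress response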
T2 sequence (P38532 whole entry): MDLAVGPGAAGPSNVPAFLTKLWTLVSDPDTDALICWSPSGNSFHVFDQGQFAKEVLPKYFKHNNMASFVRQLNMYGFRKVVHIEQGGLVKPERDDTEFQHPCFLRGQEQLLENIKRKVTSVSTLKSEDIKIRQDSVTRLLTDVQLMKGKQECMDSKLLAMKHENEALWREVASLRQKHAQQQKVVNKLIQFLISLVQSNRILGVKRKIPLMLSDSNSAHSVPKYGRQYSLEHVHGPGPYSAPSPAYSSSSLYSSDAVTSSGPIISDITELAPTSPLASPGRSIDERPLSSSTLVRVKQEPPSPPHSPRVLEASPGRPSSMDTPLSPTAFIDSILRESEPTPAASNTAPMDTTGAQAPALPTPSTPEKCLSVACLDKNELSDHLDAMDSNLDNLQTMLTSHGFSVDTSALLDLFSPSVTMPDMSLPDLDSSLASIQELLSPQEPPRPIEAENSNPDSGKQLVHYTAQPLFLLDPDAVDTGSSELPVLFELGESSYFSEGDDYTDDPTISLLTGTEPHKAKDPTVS

[9] = cytotoxicity in HEK-293T cells, dose response, cytotoxicity control for TCR NF-kB inhibitor project, luminescence, T-cell screen hits (AID 489026); type: functional, cell-based;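 also: cells exposed to compound about 14 hours before the viability readout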
[10] = target: Large T antigen (Simian virus 40, UniProt P03070); type: functional, Betapolyomavirus macacae;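 also: Confirmatory-stage PubChem screen for compounds that inhibit SV40 T antigen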
Chain of Large T antigen (P03070 whole entry): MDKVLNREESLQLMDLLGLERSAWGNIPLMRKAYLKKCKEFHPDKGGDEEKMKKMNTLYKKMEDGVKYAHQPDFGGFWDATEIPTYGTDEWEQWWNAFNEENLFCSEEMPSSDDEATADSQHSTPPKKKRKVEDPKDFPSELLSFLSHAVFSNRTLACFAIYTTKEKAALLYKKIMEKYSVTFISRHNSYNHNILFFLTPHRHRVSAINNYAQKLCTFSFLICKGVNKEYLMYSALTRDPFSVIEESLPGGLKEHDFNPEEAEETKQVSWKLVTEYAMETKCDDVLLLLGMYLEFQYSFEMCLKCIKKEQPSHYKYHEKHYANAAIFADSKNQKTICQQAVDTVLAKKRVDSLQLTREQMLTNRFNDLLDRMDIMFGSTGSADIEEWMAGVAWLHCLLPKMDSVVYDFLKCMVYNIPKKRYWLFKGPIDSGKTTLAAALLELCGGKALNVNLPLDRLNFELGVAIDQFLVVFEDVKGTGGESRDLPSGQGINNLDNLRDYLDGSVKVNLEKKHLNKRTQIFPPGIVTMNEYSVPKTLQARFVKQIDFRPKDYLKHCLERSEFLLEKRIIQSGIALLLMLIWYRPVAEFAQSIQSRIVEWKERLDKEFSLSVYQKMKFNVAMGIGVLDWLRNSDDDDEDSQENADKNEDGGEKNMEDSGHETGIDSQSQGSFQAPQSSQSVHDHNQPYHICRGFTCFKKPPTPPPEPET

[11] = target: T3, Zinc finger protein mex-5 (Caenorhabditis elegans, UniProt Q9XUB2); assay: MEX-5/TCR-2 RNA interaction inhibitors, dose response, biochemical, C. elegans, fluorescence polarization (AID 1960)
T3 sequence (Q9XUB2 whole entry): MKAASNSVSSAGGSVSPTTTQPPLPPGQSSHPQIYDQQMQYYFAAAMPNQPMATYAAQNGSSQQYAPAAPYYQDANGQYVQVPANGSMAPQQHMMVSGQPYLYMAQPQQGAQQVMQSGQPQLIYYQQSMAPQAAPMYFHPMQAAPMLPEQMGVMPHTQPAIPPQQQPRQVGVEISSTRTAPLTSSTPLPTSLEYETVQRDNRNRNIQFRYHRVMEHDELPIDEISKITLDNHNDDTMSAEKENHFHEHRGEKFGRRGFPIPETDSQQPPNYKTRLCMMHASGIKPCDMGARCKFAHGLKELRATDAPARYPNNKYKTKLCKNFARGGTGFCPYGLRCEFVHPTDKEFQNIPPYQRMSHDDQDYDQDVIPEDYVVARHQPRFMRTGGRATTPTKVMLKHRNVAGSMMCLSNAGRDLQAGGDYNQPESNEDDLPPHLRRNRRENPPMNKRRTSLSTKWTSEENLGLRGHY

[12] = system: HEK293; assay: inhibitors of LMP1-driven NF-kB reporter, dose response, cell-based, HEK293, luciferase, cherry-pick (AID 588343); type: functional; settings: Homo sapiens
[13] = target: T4, RNA-binding protein pos-1 (Caenorhabditis elegans, UniProt G5EF15); assay: inhibitors of POS-1/mex-3 RNA binding, dose response, biochemical, fluorescence polarization (AID 1964);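 also: purified POS-1 fused to maltose binding protein made in E. coli; potency of compounds blocking POS-1 binding to fluorescent RNA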
T4 sequence (G5EF15 whole entry): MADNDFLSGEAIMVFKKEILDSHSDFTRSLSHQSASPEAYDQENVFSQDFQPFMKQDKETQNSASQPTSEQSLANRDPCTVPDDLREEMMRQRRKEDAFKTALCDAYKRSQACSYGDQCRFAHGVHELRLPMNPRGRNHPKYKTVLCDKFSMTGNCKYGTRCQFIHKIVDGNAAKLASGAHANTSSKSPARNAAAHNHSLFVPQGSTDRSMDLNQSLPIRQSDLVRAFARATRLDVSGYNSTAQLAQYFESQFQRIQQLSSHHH

[14] = P. falciparum ATP4 D1247Y mutant growth inhibitors, dose response, NITD609-resistant line, SYBR Green, dry powder (AID 1159571); type: functional, cell-based;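 also: parasites synchronized at ring stage by sorbitol before testing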
[15] = P. falciparum Dd2 growth inhibitors, dose response, SYBR Green, dry powder samples (AID 1159566); type: functional, cell-based;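 also: potency for growth inhibition with lower SYBR green DNA signal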
[16] = P. falciparum 3D7-ScDHODH growth inhibitors, dose response, SYBR Green, dry powder samples (AID 1159570); type: functional, cell-based;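 also: parasite growth measured after 72 hours of compound exposure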
[17] = P. falciparum Dd2 growth inhibitors, dose response, SYBR Green, cherry-picked samples (AID 1159567); type: functional, cell-based
[18] = control 3'UTR Renilla luciferase suppression, dose response, counter-screen for Shn3 inhibitor project, cell-based, Clone20-Shn3RL, cherry-picked (AID 624133); type: functional
[19] = Shn3 3'UTR reporter inhibitors, dose response, cell-based, Clone20 osteoblasts, firefly luciferase, cherry-picked (AID 624132); type: functional;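 also: firefly luciferase luminescence from reporter carrying the Shn3 3'UTR in osteoblasts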
[20] = HepG2 cell cytotoxicity, dose response, cytotoxicity control for Shn3 inhibitor project, CellTiter-Glo, cherry-picked (AID 624134); type: functional, cell-based
[21] = target: Nonstructural protein 1 (Influenza A virus, UniProt Q194T2); type: functional, Influenza A virus (A/California/07/2009(H1N1))
Chain of Nonstructural protein 1 (Q194T2 whole entry): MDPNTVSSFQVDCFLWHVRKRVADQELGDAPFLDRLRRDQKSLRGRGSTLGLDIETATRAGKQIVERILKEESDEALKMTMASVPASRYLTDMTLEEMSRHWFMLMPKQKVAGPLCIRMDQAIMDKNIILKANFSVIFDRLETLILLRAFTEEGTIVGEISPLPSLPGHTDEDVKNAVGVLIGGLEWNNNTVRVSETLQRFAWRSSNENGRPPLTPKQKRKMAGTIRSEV

[22] = target: Induced myeloid leukemia cell differentiation protein Mcl-1 (Homo sapiens, UniProt Q07820); type: functional
Chain of Induced myeloid leukemia cell differentiation protein Mcl-1 (Q07820 whole entry): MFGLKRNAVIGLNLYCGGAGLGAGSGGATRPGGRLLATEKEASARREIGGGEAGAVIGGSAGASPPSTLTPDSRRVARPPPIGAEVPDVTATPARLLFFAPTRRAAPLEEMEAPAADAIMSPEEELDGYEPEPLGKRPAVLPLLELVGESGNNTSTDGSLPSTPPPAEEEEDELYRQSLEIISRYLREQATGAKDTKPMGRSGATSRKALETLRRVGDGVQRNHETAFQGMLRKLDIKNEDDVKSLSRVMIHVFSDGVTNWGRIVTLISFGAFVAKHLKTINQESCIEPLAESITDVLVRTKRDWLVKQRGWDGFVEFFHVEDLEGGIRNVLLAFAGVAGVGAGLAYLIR

For `C#CC[N+](CCO)(CCO)CCCCCCCCCCCCCCCCCC`, the GI50 [1] was 8.55 µM (inactive), the GI50 [2] was 13 µM (inactive) and the GI50 [3] was 1.08 µM (active).

With `Cc1ccccc1OCC(=O)NNC(=S)NC(=O)c1ccco1` the EC50 [4] was 599 nM (active), the EC50 [5] was 9.44 µM (active) and the EC50 [6] was 2.45 µM (active).

With `C[C@]12CC[C@@H]3c4cc(O)c(O)cc4CC[C@H]3[C@@H]1CC[C@@H]2O` the IC50 [7] was 72.5 µM (inactive), the EC50 [8] was 4.07 µM (active) and the IC50 [9] was > 80 µM (inactive). The IC50 [10] was > 100 µM (active).

In the case of `C=C1C(=O)OC2C=C(C)CC3C=C(CCC=C(C)CCC12)C(=O)O3` (stereo not drawn), the GI50 [1] is reported as 22.1 µM (inactive), the GI50 [2] is reported as 58.3 µM (inactive) and the GI50 [3] is reported as 12.4 µM (inactive).

In the case of `CCOc1ccccc1CN1CCNC(=O)C1CC(=O)N(C)CCc1ccccn1` (stereo not drawn), the EC50 [5] is reported as 2.11 µM (active).

For `CC1=NN(C(N)=S)C(=O)C1N=Nc1cccc(C(=O)O)c1` (stereo not drawn), the EC50 [11] was 22.7 µM (active), the AC50 [12] was 33.1 µM (active) and the EC50 [13] was 35.1 µM (active).

For `CCOC(=O)[C@@H]1CCNC[C@@H]1c1ccccc1`, the EC50 [5] was 3.35 µM (active).

With `Cc1onc(-c2ccccc2Cl)c1C(=O)N1CCN(C/C=C/c2ccccc2)CC1` the EC50 [5] was 5.96 µM (active).

For `CC(C)(C)[S@@+]([O-])N1Cc2cc(C(=O)NCCc3ccncc3)nc(-c3cccc(-c4ccccc4)c3)c2[C@H]1CCO`, the AC50 [14] was 537 nM (active), the AC50 [15] was 366 nM (active) and the AC50 [16] was 1.08 µM (active). The AC50 [17] was 414 nM (active).

In the case of `CC1Sc2ccc(S(=O)(=O)N3CCC(C(=O)Nc4cccc(Cl)c4)CC3)cc2NC1=O` (stereo not drawn), the AC50 [18] is reported as 8.77 µM (active), the AC50 [19] is reported as 3.27 µM (active) and the AC50 [20] is reported as 44.6 µM (active).

In the case of `CN1CCN(C(=O)c2cccc(-c3cc(O)c4ncccc4c3)c2)CC1`, the IC50 [21] is reported as 11.4 µM (active).

In the case of `CCC(C)N1C(=O)/C(=C/c2ccc3c(c2)CCN3CCCCl)C(=O)NC1=S` (stereo not drawn), the IC50 [22] is reported as 5.31 µM (active).
